Assay in all cases: two-electrode voltage clamp, Xenopus oocytes
Common to all, as to format: cell-based

Assay [1] deals with T1, (α4)3(β2)2 nAChR (low sensitivity) (Rattus norvegicus, UniProt P09483+P12390).
T1 construct: gene Chrna4; subunits in pGEMhe, mRNA alpha4:beta2 10:1 injected in Xenopus laevis oocytes; pentamer
The source says: (§1) two-electrode voltage clamp, Xenopus oocytes on (α4)3(β2)2 nAChR (low sensitivity)

Assay [2] addresses T2, (α4)2(β2)3 nAChR (high sensitivity) (Rattus norvegicus, UniProt P09483+P12390).
T2 construct: gene Chrna4; subunits in pGEMhe, mRNA alpha4:beta2 1:10 injected in Xenopus laevis oocytes; pentamer
The source says:
(§2) two-electrode voltage clamp, Xenopus oocytes on (α4)2(β2)3 nAChR (high sensitivity)

The target of a further assay is T3, α5[wt](α4[wt]β2[wt])2 (Rattus norvegicus, UniProt P09483+P12390).
T3 construct: gene Chrna4; Xenopus laevis oocytes; alpha5 in the auxiliary position of alpha4beta2
The following applies: read-out: IC50 (μM (-)-menthol) ± SEM. The source says:
two-electrode voltage clamp, Xenopus oocytes on α5[wt](α4[wt]β2[wt])2

Assay [3] concerns the target T4, (α4)3(β2)2 nAChR (low sensitivity) (Rattus norvegicus, UniProt P09483+P12390, P09483:L285I).
T4 construct: gene Chrna4; subunits in pGEMhe, mRNA alpha4:beta2 10:1 injected in Xenopus laevis oocytes; pentamer
To be noted: read-out: IC50 (μM (-)-menthol) ± SEM.
Excerpt: as §1

In assay [4] the target is T5, (α4)3(β2)2 nAChR (low sensitivity) (Rattus norvegicus, UniProt P09483+P12390, P09483:L285M).
T5 construct: gene Chrna4; subunits in pGEMhe, mRNA alpha4:beta2 10:1 injected in Xenopus laevis oocytes; pentamer
The following applies: read-out: IC50 (μM (-)-menthol) ± SEM.
Excerpt: as §1

The target of assay [5] is T6, (α4)3(β2)2 nAChR (low sensitivity) (Rattus norvegicus, UniProt P09483+P12390, P09483:S286L).
T6 construct: gene Chrna4; subunits in pGEMhe, mRNA alpha4:beta2 10:1 injected in Xenopus laevis oocytes; pentamer
The following applies: read-out: IC50 (μM (-)-menthol) ± SEM.
Excerpt: as §1

Assay [6] concerns the target T7, (α4)2(β2)3 nAChR (high sensitivity) (Rattus norvegicus, UniProt P09483+P12390, P09483:L285C).
T7 construct: gene Chrna4; subunits in pGEMhe, mRNA alpha4:beta2 1:10 injected in Xenopus laevis oocytes; pentamer
To be noted: read-out: IC50 (μM (-)-menthol) ± SEM.
Excerpt: as §2

The target in assay [7] is T8, (α4)2(β2)3 nAChR (high sensitivity) (Rattus norvegicus, UniProt P09483+P12390, P09483:L285F).
T8 construct: gene Chrna4; subunits in pGEMhe, mRNA alpha4:beta2 1:10 injected in Xenopus laevis oocytes; pentamer
To be noted: read-out: IC50 (μM (-)-menthol) ± SEM.
Excerpt: as §2

Assay [8] concerns the target T9, (α4)2(β2)3 nAChR (high sensitivity) (Rattus norvegicus, UniProt P09483+P12390, P09483:L285I).
T9 construct: gene Chrna4; subunits in pGEMhe, mRNA alpha4:beta2 1:10 injected in Xenopus laevis oocytes; pentamer
To be noted: read-out: IC50 (μM (-)-menthol) ± SEM.
Excerpt: as §2

For assay [9], the target named is T10, (α4)2(β2)3 nAChR (high sensitivity) (Rattus norvegicus, UniProt P09483+P12390, P09483:L285M).
T10 construct: gene Chrna4; subunits in pGEMhe, mRNA alpha4:beta2 1:10 injected in Xenopus laevis oocytes; pentamer
The following applies: read-out: IC50 (μM (-)-menthol) ± SEM.
Excerpt: as §2

Assay [10] concerns the target T11, (α4)2(β2)3 nAChR (high sensitivity) (Rattus norvegicus, UniProt P09483+P12390, P09483:L285Q).
T11 construct: gene Chrna4; subunits in pGEMhe, mRNA alpha4:beta2 1:10 injected in Xenopus laevis oocytes; pentamer
The following applies: read-out: IC50 (μM (-)-menthol) ± SEM.
Excerpt: as §2

In assay [11] the target is T12, (α4)2(β2)3 nAChR (high sensitivity) (Rattus norvegicus, UniProt P09483+P12390, P09483:L285S).
T12 construct: gene Chrna4; subunits in pGEMhe, mRNA alpha4:beta2 1:10 injected in Xenopus laevis oocytes; pentamer
To be noted: read-out: IC50 (μM (-)-menthol) ± SEM.
Excerpt: as §2

The target in assay [12] is T13, (α4)2(β2)3 nAChR (high sensitivity) (Rattus norvegicus, UniProt P09483+P12390, P09483:L285W).
T13 construct: gene Chrna4; subunits in pGEMhe, mRNA alpha4:beta2 1:10 injected in Xenopus laevis oocytes; pentamer
The following applies: read-out: IC50 (μM (-)-menthol) ± SEM.
Excerpt: as §2

Experimental findings from PMC6325563 (eNeuro, 2019) are described below.

T1 sequence (P09483 31-630): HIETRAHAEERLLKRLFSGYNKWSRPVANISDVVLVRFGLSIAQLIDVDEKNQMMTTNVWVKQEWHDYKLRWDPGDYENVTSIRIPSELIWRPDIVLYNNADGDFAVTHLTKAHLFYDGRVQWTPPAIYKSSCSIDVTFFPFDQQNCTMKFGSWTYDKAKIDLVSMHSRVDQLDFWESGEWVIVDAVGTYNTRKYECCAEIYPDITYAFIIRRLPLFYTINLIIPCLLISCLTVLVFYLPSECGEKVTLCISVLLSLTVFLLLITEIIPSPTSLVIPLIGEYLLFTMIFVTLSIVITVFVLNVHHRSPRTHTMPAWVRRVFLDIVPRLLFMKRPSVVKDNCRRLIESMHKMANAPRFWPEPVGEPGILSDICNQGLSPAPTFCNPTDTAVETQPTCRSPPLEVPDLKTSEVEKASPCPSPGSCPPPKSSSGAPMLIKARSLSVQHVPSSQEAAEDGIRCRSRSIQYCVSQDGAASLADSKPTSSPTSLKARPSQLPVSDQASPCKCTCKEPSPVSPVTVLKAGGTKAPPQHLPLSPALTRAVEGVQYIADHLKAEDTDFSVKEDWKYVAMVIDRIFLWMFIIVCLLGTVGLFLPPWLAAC
T1 sequence (P12390 25-500): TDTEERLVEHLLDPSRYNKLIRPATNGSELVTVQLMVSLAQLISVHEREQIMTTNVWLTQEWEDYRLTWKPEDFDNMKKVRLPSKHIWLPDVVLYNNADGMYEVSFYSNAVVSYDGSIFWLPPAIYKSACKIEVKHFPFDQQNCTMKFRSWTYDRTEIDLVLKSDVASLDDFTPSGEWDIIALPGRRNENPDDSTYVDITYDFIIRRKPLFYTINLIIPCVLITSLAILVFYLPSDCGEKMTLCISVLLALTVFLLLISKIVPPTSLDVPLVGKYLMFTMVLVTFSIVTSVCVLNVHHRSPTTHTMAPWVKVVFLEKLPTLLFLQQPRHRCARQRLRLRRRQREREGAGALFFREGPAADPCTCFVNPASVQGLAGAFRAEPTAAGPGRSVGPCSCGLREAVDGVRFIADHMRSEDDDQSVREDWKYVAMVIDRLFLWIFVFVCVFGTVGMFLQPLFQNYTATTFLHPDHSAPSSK
T2 sequence (P09483 31-630): as the sequence (P09483 31-630) above
T2 sequence (P12390 25-500): as the sequence (P12390 25-500) above
T3 sequence (P09483 31-630): as the sequence (P09483 31-630) above
T3 sequence (P12390 25-500): as the sequence (P12390 25-500) above
T3 sequence (P20420 28-452 partner): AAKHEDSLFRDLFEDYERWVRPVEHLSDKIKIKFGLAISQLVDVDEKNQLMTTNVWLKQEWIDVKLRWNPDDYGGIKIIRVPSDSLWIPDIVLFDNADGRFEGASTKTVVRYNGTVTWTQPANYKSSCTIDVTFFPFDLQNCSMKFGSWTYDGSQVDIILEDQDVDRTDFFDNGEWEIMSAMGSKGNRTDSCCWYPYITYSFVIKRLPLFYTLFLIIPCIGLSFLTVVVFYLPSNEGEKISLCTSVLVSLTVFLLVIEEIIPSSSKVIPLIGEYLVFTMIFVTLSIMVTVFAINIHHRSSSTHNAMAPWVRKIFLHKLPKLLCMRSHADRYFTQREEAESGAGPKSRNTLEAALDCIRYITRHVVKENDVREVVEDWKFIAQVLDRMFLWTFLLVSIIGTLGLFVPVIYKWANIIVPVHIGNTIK
T7 sequence (P09483 31-630 L285C): as the sequence (P09483 31-630) above, with L255C counted along it
T7 sequence (P12390 25-500): as the sequence (P12390 25-500) above
T10 sequence (P09483 31-630 L285M): as the sequence (P09483 31-630) above, with L255M counted along it
T10 sequence (P12390 25-500): as the sequence (P12390 25-500) above
T5 sequence (P09483 31-630 L285M): as the sequence (P09483 31-630) above, with L255M counted along it
T5 sequence (P12390 25-500): as the sequence (P12390 25-500) above
T11 sequence (P09483 31-630 L285Q): as the sequence (P09483 31-630) above, with L255Q counted along it
T11 sequence (P12390 25-500): as the sequence (P12390 25-500) above
T8 sequence (P09483 31-630 L285F): as the sequence (P09483 31-630) above, with L255F counted along it
T8 sequence (P12390 25-500): as the sequence (P12390 25-500) above
T12 sequence (P09483 31-630 L285S): as the sequence (P09483 31-630) above, with L255S counted along it
T12 sequence (P12390 25-500): as the sequence (P12390 25-500) above
T9 sequence (P09483 31-630 L285I): as the sequence (P09483 31-630) above, with L255I counted along it
T9 sequence (P12390 25-500): as the sequence (P12390 25-500) above
T4 sequence (P09483 31-630 L285I): as the sequence (P09483 31-630) above, with L255I counted along it
T4 sequence (P12390 25-500): as the sequence (P12390 25-500) above
T13 sequence (P09483 31-630 L285W): as the sequence (P09483 31-630) above, with L255W counted along it
T13 sequence (P12390 25-500): as the sequence (P12390 25-500) above
T6 sequence (P09483 31-630 S286L): as the sequence (P09483 31-630) above, with S256L counted along it
T6 sequence (P12390 25-500): as the sequence (P12390 25-500) above

As usually defined, the IC50 is the concentration needed to halve the response being measured. `CC(C)[C@H]1CC[C@H](C)C[C@@H]1O` [(+)-menthol]: the 50% inhibitory concentration (IC50) in [1] came out at 45.5 ± 2.03 µM; in assay [2] it was 48.3 ± 1.67 µM.

As to `CC(C)[C@@H]1CC[C@@H](C)C[C@H]1O` [(−)-menthol], the IC50 on α5[wt](α4[wt]β2[wt])2 was found to be 51 ± 9.06 µM; in assay [1], 33.1 ± 1.83 µM; in [3], 127 ± 29.1 µM; in [4] it was 39.2 ± 7.98 µM; in [5], 29.4 ± 4.32 µM; in assay [2] it was 44.9 ± 1.62 µM. The half-inhibitory concentration (IC50) in [6] amounted to 306 ± 173 µM; in [7] it was 211 ± 75.6 µM; in assay [8], 97.3 ± 38.5 µM; in assay [9], 26.6 ± 1.9 µM; in [10], 165 ± 28.1 µM; in assay [11] it was 514 ± 361 µM. For the same molecule, the IC50 in assay [12] was 28.8 ± 3.26 µM.
